From ChEMBL document CHEMBL1201862, “PubChem BioAssay data set” (2004)
Activity calls are given as the source filed them. For most assays here, no stated cut-off is given here; in the data, actives have a measured EC50 and inactives only a lower limit.

How the values were obtained:
[1] = NIH-3T3 fibroblast cytotoxicity, dose response, cytotoxicity control, cell-based, fluorescence, Alamar Blue, secondary assay (AID 2327); type: functional;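 further: NIH-3T3 mouse fibroblasts cultured with fluconazole at 8 µg/mL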
cells [2] = type: functional, cell-based
[3] = fluconazole-exposed Candida albicans growth modulators – fluorescence, retest, confirmation (AID 2467); type: functional, cell-based
cells [4] = type: functional, cell-based; remark: listed apart in the source
[5] = Luminescence Cell-Based Dose Confirmation HTS to Identify Activators of 5'UTR Stem-Loop Driven Alpha-Synuclein mRNA Translation in H4 Neuroglioblastoma Cells. [Related pubchem assays: 1829 (Project Summary), 1814 (Primary HTS)]; type: functional
[6] = Luminescence Cell-Based Dose Response HTS to Identify Activators of Luciferase Translation or Activity in H4 […] Cells. [Related pubchem assays: 1829 (Project Summary), 1814 (Primary HTS)]; type: functional
H4 = test: Luminescence Cell-Based Dose Response HTS to Identify Activators of 5'UTR Stem-Loop Driven Prion Protein mRNA Translation in H4 Neuroglioblastoma Cells. [Related pubchem assays: 1829 (Project Summary), 1814 (Primary HTS)]; type: functional; settings: Homo sapiens
[7] = biological target: T1, Rac GTPase-activating protein 1 (Homo sapiens, UniProt Q9H0H5); test: blockers of MgcRacGAP-driven Rac1 GTP hydrolysis – biochemical, ADP Hunter fluorescence, primary and confirmatory, confirmation (AID 624330); type: functional
T1 sequence (Q9H0H5 whole entry): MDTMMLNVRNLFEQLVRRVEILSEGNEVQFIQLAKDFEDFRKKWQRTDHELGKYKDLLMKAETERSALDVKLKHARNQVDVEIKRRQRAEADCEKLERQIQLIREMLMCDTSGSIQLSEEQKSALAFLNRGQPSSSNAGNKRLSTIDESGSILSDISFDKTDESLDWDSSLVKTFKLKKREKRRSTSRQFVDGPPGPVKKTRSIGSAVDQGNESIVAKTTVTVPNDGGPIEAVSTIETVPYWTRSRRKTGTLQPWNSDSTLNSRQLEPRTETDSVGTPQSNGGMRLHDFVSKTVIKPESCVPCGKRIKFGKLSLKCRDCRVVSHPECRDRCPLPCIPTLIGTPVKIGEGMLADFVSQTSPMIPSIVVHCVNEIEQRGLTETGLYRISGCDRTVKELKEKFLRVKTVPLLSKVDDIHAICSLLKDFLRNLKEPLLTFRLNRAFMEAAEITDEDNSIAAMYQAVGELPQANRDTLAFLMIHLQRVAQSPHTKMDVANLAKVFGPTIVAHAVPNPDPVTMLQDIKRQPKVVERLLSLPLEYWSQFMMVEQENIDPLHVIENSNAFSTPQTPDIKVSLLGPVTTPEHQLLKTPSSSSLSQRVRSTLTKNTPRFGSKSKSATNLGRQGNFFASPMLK

[8] = biological target: Induced myeloid leukemia cell differentiation protein Mcl-1 (Homo sapiens, UniProt Q07820); type: functional
Induced myeloid leukemia cell differentiation protein Mcl-1, sequence (Q07820 whole entry, the tested form may be a part): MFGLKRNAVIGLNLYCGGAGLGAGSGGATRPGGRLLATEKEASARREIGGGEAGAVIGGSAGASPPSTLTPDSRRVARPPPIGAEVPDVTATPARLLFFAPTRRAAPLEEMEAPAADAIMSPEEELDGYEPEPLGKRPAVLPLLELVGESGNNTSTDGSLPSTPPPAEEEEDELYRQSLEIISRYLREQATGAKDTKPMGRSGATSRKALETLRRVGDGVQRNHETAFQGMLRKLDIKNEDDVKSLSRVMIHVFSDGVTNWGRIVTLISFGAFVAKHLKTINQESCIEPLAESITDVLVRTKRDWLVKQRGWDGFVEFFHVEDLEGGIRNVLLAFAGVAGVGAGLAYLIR

[9] = biological target: T2, RNA-binding protein pos-1 (Caenorhabditis elegans, UniProt G5EF15); test: disruptors of C. elegans POS-1 RNA interaction – biochemical, fluorescence polarization, dose response (AID 1964);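 further: purified POS-1 fused to maltose binding protein made in E. coli; potency of compounds blocking POS-1 binding to fluorescent RNA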
T2 sequence (G5EF15 whole entry): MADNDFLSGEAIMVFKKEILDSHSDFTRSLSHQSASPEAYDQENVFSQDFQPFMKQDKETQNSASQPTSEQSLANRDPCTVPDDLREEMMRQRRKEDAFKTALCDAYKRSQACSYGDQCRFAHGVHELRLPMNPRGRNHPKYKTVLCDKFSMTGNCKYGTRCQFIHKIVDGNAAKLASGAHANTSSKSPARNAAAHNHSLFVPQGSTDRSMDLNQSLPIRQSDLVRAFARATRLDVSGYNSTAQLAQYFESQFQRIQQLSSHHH

[10] = biological target: T3, Zinc finger protein mex-5 (Caenorhabditis elegans, UniProt Q9XUB2); test: potency of MEX-5 RNA-binding blockers – biochemical, C. elegans, fluorescence polarization, dose response (AID 1960)
T3 sequence (Q9XUB2 whole entry): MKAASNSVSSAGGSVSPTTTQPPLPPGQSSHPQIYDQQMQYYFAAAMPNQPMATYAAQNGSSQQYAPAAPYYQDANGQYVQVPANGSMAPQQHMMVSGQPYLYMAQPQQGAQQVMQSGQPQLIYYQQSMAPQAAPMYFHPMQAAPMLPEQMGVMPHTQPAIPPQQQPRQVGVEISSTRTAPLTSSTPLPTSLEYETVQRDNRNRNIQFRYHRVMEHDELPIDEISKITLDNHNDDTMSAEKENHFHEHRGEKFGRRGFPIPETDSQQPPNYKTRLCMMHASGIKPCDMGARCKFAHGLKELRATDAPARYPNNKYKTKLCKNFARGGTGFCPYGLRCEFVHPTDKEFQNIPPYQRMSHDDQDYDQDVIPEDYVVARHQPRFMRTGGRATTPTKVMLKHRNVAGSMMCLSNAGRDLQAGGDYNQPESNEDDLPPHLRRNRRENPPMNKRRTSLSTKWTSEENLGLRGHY

[11] = biological target: T4, Replicative DNA helicase DnaB (Mycobacterium tuberculosis, UniProt P9WMR3); test: DnaB intein splicing inhibitors, dose response, biochemical, cell-free fluorescence (AID 449749); type: functional
T4 sequence (P9WMR3 whole entry): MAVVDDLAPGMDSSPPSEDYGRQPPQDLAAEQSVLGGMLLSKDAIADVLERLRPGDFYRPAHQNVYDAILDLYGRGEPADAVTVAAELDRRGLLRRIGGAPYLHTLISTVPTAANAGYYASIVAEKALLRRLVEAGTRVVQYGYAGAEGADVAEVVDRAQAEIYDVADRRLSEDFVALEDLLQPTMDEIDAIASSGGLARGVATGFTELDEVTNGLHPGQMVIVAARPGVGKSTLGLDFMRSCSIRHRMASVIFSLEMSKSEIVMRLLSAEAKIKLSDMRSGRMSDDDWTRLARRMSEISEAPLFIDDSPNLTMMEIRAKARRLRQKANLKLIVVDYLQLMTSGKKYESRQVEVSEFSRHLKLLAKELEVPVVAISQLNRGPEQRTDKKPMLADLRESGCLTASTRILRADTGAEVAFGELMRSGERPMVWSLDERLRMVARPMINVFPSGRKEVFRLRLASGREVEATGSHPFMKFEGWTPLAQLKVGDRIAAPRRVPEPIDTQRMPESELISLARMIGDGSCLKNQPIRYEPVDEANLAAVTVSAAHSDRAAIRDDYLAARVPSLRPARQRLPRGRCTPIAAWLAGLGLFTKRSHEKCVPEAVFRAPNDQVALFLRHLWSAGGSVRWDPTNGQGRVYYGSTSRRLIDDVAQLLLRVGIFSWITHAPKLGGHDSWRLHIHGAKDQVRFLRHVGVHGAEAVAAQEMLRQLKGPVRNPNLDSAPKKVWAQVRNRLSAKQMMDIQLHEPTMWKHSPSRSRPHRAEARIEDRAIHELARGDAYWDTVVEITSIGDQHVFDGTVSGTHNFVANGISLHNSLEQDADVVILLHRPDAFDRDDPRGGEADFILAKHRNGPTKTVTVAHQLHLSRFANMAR

Protein RecA = biological target: T5, Protein RecA (Mycobacterium tuberculosis, UniProt P9WHJ3); test: Fluorescence Cell-Free Homogeneous Dose Retest to Identify Inhibitors of RecA-Intein Splicing Activity. [Related pubchem assays (depositor defined):AID2097, AID2223, AID489010, AID492950]; type: functional
T5 sequence (P9WHJ3 whole entry): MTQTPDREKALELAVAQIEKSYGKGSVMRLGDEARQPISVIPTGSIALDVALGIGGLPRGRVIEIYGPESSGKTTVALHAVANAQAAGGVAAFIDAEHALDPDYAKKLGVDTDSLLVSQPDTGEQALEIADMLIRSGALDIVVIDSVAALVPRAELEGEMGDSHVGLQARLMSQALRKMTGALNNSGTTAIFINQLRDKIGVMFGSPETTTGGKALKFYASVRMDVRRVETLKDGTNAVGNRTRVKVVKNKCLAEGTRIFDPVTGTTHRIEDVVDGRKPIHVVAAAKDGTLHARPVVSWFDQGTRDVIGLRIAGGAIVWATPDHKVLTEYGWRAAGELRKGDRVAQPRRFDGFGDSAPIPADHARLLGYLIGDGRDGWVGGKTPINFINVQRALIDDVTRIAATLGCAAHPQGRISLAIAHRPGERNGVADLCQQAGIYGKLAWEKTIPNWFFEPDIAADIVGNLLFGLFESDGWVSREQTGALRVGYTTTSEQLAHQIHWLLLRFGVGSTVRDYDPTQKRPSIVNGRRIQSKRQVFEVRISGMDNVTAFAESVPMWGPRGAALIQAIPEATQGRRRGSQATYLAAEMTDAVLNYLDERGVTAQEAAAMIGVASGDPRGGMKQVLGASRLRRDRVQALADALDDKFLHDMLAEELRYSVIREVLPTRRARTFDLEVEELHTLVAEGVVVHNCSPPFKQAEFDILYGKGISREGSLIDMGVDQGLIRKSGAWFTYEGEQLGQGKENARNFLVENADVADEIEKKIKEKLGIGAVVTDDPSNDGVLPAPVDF

[12] = biological target: T6, Polyadenylate-binding protein 1 (Homo sapiens, UniProt P11940); test: MLLE binding blockers, Cy5 peptide tracer – biochemical, fluorescence polarization, Cy5-PAM2 peptide, secondary, miRNA deadenylation inhibitor project, dose response (AID 602260); type: functional; settings: read-out: IC50_Mean
T6 sequence (P11940 whole entry, the tested form may be a part): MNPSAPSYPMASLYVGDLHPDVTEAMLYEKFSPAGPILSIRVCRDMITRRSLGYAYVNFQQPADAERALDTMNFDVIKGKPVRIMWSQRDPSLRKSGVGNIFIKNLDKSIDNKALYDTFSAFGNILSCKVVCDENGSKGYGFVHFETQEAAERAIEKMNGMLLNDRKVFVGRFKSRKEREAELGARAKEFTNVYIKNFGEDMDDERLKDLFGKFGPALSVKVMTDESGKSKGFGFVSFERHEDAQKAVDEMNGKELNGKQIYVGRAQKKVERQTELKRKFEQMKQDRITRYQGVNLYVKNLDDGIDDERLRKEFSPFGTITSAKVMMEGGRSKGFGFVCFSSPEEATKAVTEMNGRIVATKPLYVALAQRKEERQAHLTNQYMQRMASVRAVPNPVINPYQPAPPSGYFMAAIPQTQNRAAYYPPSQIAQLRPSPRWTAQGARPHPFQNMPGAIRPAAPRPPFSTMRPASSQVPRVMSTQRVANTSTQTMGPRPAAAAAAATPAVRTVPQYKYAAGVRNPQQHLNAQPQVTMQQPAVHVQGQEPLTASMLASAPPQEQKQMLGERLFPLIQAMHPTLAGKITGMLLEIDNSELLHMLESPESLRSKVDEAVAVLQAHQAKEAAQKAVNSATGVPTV

[13] = biological target: T6, Polyadenylate-binding protein 1; test: MLLE domain peptide-binding blockers, IC50 – biochemical, fluorescence polarization, FITC-PAM2 peptide, dose response (AID 602259); type: functional; settings: read-out: IC50_Mean
Protein skinhead-1 = biological target: T7, Protein skinhead-1 (Caenorhabditis elegans, UniProt P34707); type: functional
T7 sequence (P34707 whole entry): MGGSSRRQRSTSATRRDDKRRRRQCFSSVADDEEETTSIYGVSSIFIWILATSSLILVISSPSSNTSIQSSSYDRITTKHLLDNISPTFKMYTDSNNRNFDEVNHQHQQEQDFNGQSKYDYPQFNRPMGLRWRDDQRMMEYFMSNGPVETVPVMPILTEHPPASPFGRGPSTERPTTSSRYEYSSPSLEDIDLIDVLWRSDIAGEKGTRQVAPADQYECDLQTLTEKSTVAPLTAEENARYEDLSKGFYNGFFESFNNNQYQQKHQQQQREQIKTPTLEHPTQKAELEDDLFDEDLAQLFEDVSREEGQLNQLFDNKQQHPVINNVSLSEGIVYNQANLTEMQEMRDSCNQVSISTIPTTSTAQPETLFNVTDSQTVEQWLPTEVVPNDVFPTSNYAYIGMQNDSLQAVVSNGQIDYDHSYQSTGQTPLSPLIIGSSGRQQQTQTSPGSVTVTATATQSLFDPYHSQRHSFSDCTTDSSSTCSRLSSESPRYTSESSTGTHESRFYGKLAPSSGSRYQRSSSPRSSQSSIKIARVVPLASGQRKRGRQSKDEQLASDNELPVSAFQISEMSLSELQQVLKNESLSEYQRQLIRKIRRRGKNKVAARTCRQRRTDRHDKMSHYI

Large T antigen = Large T antigen (Simian virus 40, UniProt P03070); type: functional, Betapolyomavirus macacae;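 further: Confirmatory-stage PubChem screen for compounds that inhibit SV40 T antigen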
Large T antigen, sequence (P03070 whole entry): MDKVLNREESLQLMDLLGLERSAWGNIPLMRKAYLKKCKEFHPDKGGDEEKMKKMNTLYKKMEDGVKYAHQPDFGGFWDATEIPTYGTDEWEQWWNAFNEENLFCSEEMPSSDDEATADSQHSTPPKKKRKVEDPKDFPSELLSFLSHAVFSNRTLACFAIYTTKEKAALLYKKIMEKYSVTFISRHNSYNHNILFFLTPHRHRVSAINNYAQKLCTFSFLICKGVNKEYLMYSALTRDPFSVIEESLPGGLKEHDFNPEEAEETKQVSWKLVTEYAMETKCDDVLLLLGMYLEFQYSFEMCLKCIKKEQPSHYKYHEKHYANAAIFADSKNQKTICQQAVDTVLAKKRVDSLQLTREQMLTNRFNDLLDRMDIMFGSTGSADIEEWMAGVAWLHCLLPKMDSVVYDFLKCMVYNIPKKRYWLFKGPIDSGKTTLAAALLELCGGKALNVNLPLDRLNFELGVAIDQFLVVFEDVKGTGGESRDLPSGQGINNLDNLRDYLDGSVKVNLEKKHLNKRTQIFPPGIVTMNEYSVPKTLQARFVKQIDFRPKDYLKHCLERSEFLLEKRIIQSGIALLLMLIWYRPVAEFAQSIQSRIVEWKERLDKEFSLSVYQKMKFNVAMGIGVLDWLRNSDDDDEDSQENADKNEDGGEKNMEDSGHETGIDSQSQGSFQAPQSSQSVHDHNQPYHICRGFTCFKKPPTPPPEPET

Oc1ccc(CN2CCC(Cc3ccccc3)CC2)c2cccnc12
EC50 [1]: 22.3 µM (active)
EC50 (cells [2]): 6.9 µM (active)
EC50 [3]: 1.99 µM (active)
EC50 (cells [4]): > 350 µM (not active)

Cc1ccc2[nH]c(N3CCN(C)CC3)nc2c1
EC50 [5]: 3.62 µM (active)
EC50 [6]: 18.7 µM (active)
EC50 (cells [2]): > 350 µM (not active)
EC50 (H4): 20 µM (active)
EC50 (cells [4]): > 350 µM (not active)

CCN1CCN(c2ccc([N+](=O)[O-])cc2C=C2C(=O)NC(=O)NC2=O)CC1
EC50 (cells [2]): > 350 µM (not active)
EC50 (cells [4]): > 350 µM (not active)

COc1ccccc1CNCC(=O)Nc1ccc(N(C)C)cc1
IC50 [7]: 32.1 µM (active)

CCN=c1ccc(Br)cc(C(=O)/C=C/c2ccc(Cl)cc2)c1O
IC50 [8]: 3.55 µM (active)

Cc1ccc(O)c(NC(=O)c2ccc3c(c2)C(=O)N(Cc2ccco2)C3=O)c1
EC50 (cells [2]): > 350 µM (not active)
EC50 (cells [4]): 52.2 µM (active)

CCN1C(=O)/C(=C/c2ccc3c(c2)CCN3CCCCl)C(=O)NC1=S
IC50 [8]: 3.4 µM (active)

CCN(CC)C(=O)CSc1nnc2nnc3cc(Cl)ccc3n12
EC50 [9]: 23.2 µM (active)
EC50 [10]: 18.5 µM (active)
AC50 [11]: > 380 µM (inactive)
EC50 (Protein RecA): 0.499 µM (active)
IC50 [12]: > 66 µM (inactive)
IC50 [13]: 34.4 µM (inactive)

COc1cccc(N2CC(C(=O)Oc3ccc4ccccc4c3)CC2=O)c1 (stereo unspecified)
IC50 [7]: 16.1 µM (active)

Cc1cc(NC(=O)CN2CCN(C)CC2)no1
IC50 [7]: 157 µM (active)

Cc1ccc(S(=O)(=O)Nc2nsc(N)n2)cc1
IC50 [7]: 82.8 µM (active)

C/C(=C\C(=O)OCC(=O)NCc1ccccc1)C(=O)OCC(=O)NCc1ccccc1
EC50 (cells [2]): > 350 µM (not active)
EC50 (cells [4]): > 350 µM (not active)

CSCc1nc2sc(C(=O)Nc3nc(C)cs3)c(C)c2c(=O)[nH]1
IC50 [8]: 3.89 µM (active)

CCOC(=O)CN(C(=O)COc1nc(C)cc(C)c1C#N)c1cccc(Cl)c1
EC50 (cells [2]): > 350 µM (not active)
EC50 (cells [4]): > 350 µM (not active)

Cc1cc2cc(CNC(=O)Cc3ccc([N+](=O)[O-])cc3)ccc2n1C
IC50 [12]: > 66 µM (inactive)
IC50 [13]: > 66 µM (inactive)
IC50 (Protein skinhead-1): > 100 µM (inactive)

O=C1NC(=O)C(=Cc2cccs2)C(=O)N1
IC50 [7]: 188 µM (active)

O=C(N/N=C/c1ccc(O)c(O)c1)c1ccc(CSc2cccc3cccnc23)cc1
IC50 (Large T antigen): 5.43 µM (active)
IC50 [8]: 4.61 µM (active)
